Measurements taken from US20240360153A1 (Regeneron Pharmaceuticals, Inc., priority 2023, published 2024).
“Also recorded” adds a separate entry of the source.

Legend:
[1] = system: S6K1 (Thr389) phosphorylation (mTORC1 activity) in wild-type (WT) 293T cells; experiment: Inhibition of S6K1 (Thr389) phosphorylation in wild-type 293T cells (ELISA); type: cell-based, human; conditions: for extent of inhibition of S6K1 (Thr389) phosphorylation: with increasing concentrations
Method in brief: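 WT 293T cells in DMEM + 10% FBS, grown 24 h to ~80% confluence, then treated 2 h at 37 °C in duplicate with compounds over an 8–11-point range from 0.001 pM to 10 μM. DMSO vehicle served as negative control. Phospho-S6K1 (Thr389) measured by ELISA.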

[2] = In vitro microsomal metabolic stability, CD-1 mouse liver microsomes; type: in vitro ADME; conditions: for CLint scaled at 1 µM / microsomal CLint at 1 µM: CD-1, mouse, mouse liver microsomes, pH 7.2; for half-life at 1 µM: CD-1, pH 7.2, 0.5 mg/ml protein, NADPH; for half-life at 1 µM / Remaining (T = 60 min) / Remaining (T = NCF60 min): Mouse liver microsomes; for Remaining (T = 60 min): with NADPH; for Remaining (T = NCF60 min): without NADPH regenerating system; for Remaining (T = 60 min) / Remaining (T = NCF60 min): 60 min
Method in brief: (§1)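 Compounds at 1 μM incubated at 37° C with pooled CD-1 mouse or human liver microsomes (0.5 mg/mL protein) plus NADPH regenerating system in 50 mM potassium phosphate, pH 7.2, 3.3 mM MgCl2; sampled at 0–60 min, 60-min no-NADPH control. Parent loss by LC/MS/MS analyte/IS peak-area ratio, n=1.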

[3] = In vitro microsomal metabolic stability, human liver microsomes; type: in vitro ADME; conditions: for Remaining (T = 60 min) / Remaining (T = NCF60 min) / half-life at 1 µM: Human liver microsomes; for Remaining (T = 60 min): with NADPH; for Remaining (T = NCF60 min): without NADPH regenerating system; for Remaining (T = 60 min) / Remaining (T = NCF60 min): 60 min; for CLint scaled at 1 µM / microsomal CLint at 1 µM: human, human liver microsomes; for CLint scaled at 1 µM / microsomal CLint at 1 µM / half-life at 1 µM: pH 7.2; for half-life at 1 µM: 0.5 mg/ml protein, NADPH
Method in brief: as §1

[4] = Pharmacokinetic studies in male CD-1 mice (plasma, IV and PO); type: in vivo, mouse; conditions: for clearance / Vd / bioavailability / half-life / Cmax / concentration at 8 h / concentration at 24 h: male; for clearance / Vd / bioavailability: CD-1, plasma, mouse; for clearance / Vd / half-life: IV 2 mg/kg; for clearance: read-out: CI(mL/min/kg), compounds clearance following IV administration; for Vd: read-out: Vdss (L/kg), volume of distribution following IV administration; for bioavailability: PO 10 mg/kg vs IV 2 mg/kg; for half-life / Cmax / concentration at 8 h / concentration at 24 h: CD-1; for half-life / Cmax / concentration at 8 h / concentration at 24 h / IV plasma half-life (T1/2): mouse plasma; for half-life: read-out: IV T1/2 (converted); for Cmax / concentration at 8 h / concentration at 24 h: PO 10 mg/kg; for concentration at 8 h: read-out: Compound concentration at 8-hour, PO administration; for concentration at 24 h: read-out: Compound concentration at 24-hour, PO administration
Method: Animal experiments were carried out at Wuxi AppTec. Male 6-8 weeks old CDI mice were obtained from Hilltop Labs. Following arrival at Wuxi AppTec, mice were housed in animal rooms with environmental control (temperature: 20 to 26° C.; lighting: 12 hour light/dark cycle). Mice were fed with certified pellet diet (Certified Rodent Diet #5002 by LabDiet). Water was provided to the animals ad libitum. Mice were acclimated to the facility for at least 3 days prior to starting experiments.
Appropriate amount of test article formulated in 5% ethanol, 5% Tween-80 and 5% PEG-400, 85% water. Formulation was prepared on the day of dosing and dosed within 2 hours following preparation of formulations. Dose accuracy was determined by LC-MS/MS.
Dose formulation(s) were administered following facility SOPs. Dose volumes were determined individually prior to dosing based on animals' body weights.
About 40 μL of blood samples were collected via peripheral veins (e.g. saphenous veins) at each pre-defined time point. Blood samples were collected into tubes containing K2EDTA as anti-coagulant and kept on ice until centrifugation.
Blood samples were centrifuged at 4° C., 3000 g for 5 min within half an hour of collection. Plasma was transferred into polypropylene tubes or 96-well plates, promptly frozen on dry ice and stored at −70±10° C. until analysis by LC-MS/MS.
Test compound concentration in mouse plasma was determined with LC-MS/MS method using a calibration curve with at least 6 non-zero calibration standards.
The pharmacokinetics (PK) of the test article was analyzed using Phoenix WinNonlin software (version 8.3) and non-compartmental analysis model. Derived PK parameters include, but not limited to, C0, CLp, Vdss, Cmax, Tmax, T1/2, AUC(0-t), AUC(0-inf), MRT(0-t), MRT(0-inf) and % F (bioavailability).

Row | Structure (SMILES) | extent of inhibition of S6K1 (Thr389) phosphorylation ([1]; wild-type cells) | CLint scaled at 1 µM [2] | microsomal CLint at 1 µM [2] | half-life at 1 µM [2] | Remaining (T = 60 min) [2] | Remaining (T = NCF60 min) [2] | Remaining (T = 60 min) [3] | Remaining (T = NCF60 min) [3] | CLint scaled at 1 µM [3] | microsomal CLint at 1 µM [3] | half-life at 1 µM [3] | clearance [4] | Vd [4] | bioavailability [4] | half-life [4] | Cmax [4] | concentration at 8 h [4] | concentration at 24 h [4] | IV plasma half-life (T1/2) [4] | other results
1 | COCCN(c1ccccc1)C1C[C@@H]2CC[C@@H](C)[C@@](O)(O2)C(=O)C(=O)N2CCCC[C@H]2C(=O)OC([C@H](C)CC2CC[C@@H](O)C(OC)C2)CC[C@H](C)/C=C(\C)C(O)C(OC)C(=O)[C@H](C)C[C@H](C)/C=C/C=C/C=C/1C (stereo partly drawn) [Compound 69, (3S,6S,7E,9R,10R,12R,14S,15E,17E,19E,23S,26R,27R,34aS)-9,27-dihydroxy-3-((R)-1-((1S,3R,4R)-4-hydroxy-3-methoxycyclohexyl)propan-2-yl)-10-methoxy-21-((2-methoxyethyl)(phenyl)amino)-6,8,12,14,20,26-hexamethyl-5,6,9,10,12,13,14,21,22,23,24,25,26,27,32,33,34,34a-octadecahydro-3H-23,27-epoxypyrido[2,1-c][1]oxa[4]azacyclohentriacontine-1,11,28,29(4H,31H)-tetraone] | near complete inhibition | 0.666 L/h/kg | 2.81 µL/min/mg | 8.2 h | 113% | 99.6% | 63.3% | 115% | 1.53 L/h/kg | 28.3 µL/min/mg | 0.817 h | 0.176 mL/min/kg | 0.228 L/kg | 30.7% | 15.5 h | 12.9 µg/mL | 10 µg/mL | 4.67 µg/mL | 15.5 h | IC50 ([1]; Homo sapiens, HEK-293T, 2 h, wild-type 293T cells, 2 hours treatment): 1.53 nM; fold lower potency compared with RAD001 (by IC50) ([1]; wild-type cells): 4 fold
2 | CO[C@H]1C[C@@H]2CC[C@@H](C)[C@@](O)(O2)C(=O)C(=O)N2CCCC[C@H]2C(=O)O[C@H]([C@H](C)C[C@@H]2CC[C@@H](OCCO)[C@H](OC)C2)CC(=O)[C@H](C)/C=C(\C)[C@@H](O)[C@@H](OC)C(=O)[C@H](C)C[C@H](C)/C=C/C=C/C=C/1C [RAD001, everolimus, reference compound] | completely inhibit; also recorded: near complete inhibition | 4.61 L/h/kg | 19.4 µL/min/mg | 1.19 h | 56% | 126% | 2.10% | 120% | 6.72 L/h/kg | 124 µL/min/mg | 0.185 h | 0.934 mL/min/kg | 0.433 L/kg | 26% | 5.85 h | 7.22 µg/mL | 1.96 µg/mL | 0.273 µg/mL | 5.85 h | 
